Experimental data reported in patent US6414005B1, “Heterocyclic compounds having nos inhibitory activities” (Chugai Seiyaku Kabushiki Kaisha, priority 1997, dated 2002).
Counter-ions that a name gives are not always drawn. Like-named read-outs stand apart in the source and are kept apart here.

Key:
nNOS (type 1) = target: T1, nNOS (type 1) (Rattus norvegicus, UniProt P29476); test: NOS activity, conversion of L-[3H]arginine to L-[3H]citrulline, crude enzyme of nNOS; type: biochemical; settings: for Ratio of IC50 eNOS/nNOS / Ratio of IC50 iNOS/nNOS: index of selectivity
T1 construct: from tissue; host or cells: rat cerebral cortex, 100,000 x g supernatant (cytosol)
Procedure: The crude enzyme of nNOS was prepared by the following procedure. Normal untreated male Sprague Dawley (SD) rats (body weight, 300-400 g) were decapitated; the whole brain was immediately taken out from each animal and the cerebral cortex was separated on ice. Then, 5 volumes of 50 mM Tris-HCl containing 1 mM DTT (pH 7.4) was added and the mixture was homogenized for 3 min and centrifuged at 1,000×g for 10 min. The resulting supernatant was further centrifuged at 100,000×g for 60 min and a soluble cytosolic fraction of the finally obtained supernatant was used as the crude enzyme of nNOS.
(§1) The reaction was started by addition of L-[^3H] arginine. After incubation at 37° C. for 10 min, the reaction was terminated by addition of 2 ml of 50 mM Tris-HCl (pH 5.5) containing 1 mM EDTA and placing the mixture on ice. The reaction solution was passed through a cation-exchange resin column (Dowex AG50WX-8, Na^+ form, 3.2 ml) to separate the reaction product L-[^3H] citrulline from the unreacted residual substrate L-[^3H] arginine. The eluate was combined with another eluate resulting from the passage of a given amount of distilled water through the column and put into a minivial for recovery of L-[^3H] citrulline. Thereafter, a scintillation fluid was added and the contained radioactivity was measured with a liquid scintillation counter to determine the amount of L-[^3H] citrulline.
The activity of nNOS or eNOS was determined by subtracting the activity detected in the absence of CaCl2 and calmodulin from the activity detected in the presence of CaCl2 and calmodulin. The protein concentration of each crude enzyme sample was determined with a micro-assay kit of Bio Rad Co. Each experiment was conducted in a duplicate.

eNOS (type 3) = target: T2, eNOS (type 3) (Bos taurus, UniProt P29473); test: NOS activity, conversion of L-[3H]arginine to L-[3H]citrulline, crude enzyme of eNOS; type: biochemical, cow; settings: for IC50: crude enzyme from cow pulmonary arterial endothelium cells (CPAE), 100 nM L-[3H]arginine, 37° C., 10 min; for Ratio of IC50 eNOS/inos: index of selectivity
T2 construct: Cow pulmonary arterial endothelium cells (CPAE) were cultured in a MEM medium containing 20% FBS; endogenous in cells; host or cells: CPAE (cow pulmonary arterial endothelium cells), detergent extract, 100,000 x g supernatant
Procedure: The crude enzyme of eNOS was prepared by the following procedure. Cow pulmonary arterial endothelium cells (CPAE) were cultured in a MEM medium containing 20% FBS. Several days later, the cells were detached from the flask using a 0.25% trypsin solution containing 1 mM EDTA and, after addition of a suitable amount of FBS, centrifuged at 1,000 rpm for 10 min. A suitable amount of Ca- and Mg-free phosphate buffer (pH 7.4) was added to the precipitating cells and they were centrifuged at 1,000 rpm for 10 min. The same step was repeated to wash the cells which, upon addition of 50 mM Tris-HCl (pH 7.4) containing 1% Triton X-100 and 1 mM DTT, were left to stand in ice for 1 h. Subsequently, the mixture was homogenized for 3 min and kept in ice for 30 min with occasional stirring. Finally, the mixture was centrifuged at 100,000×g for 60 min and the resulting supernatant was used as the crude enzyme of eNOS.

iNOS (type 2) = iNOS (type 2) (Rattus norvegicus, UniProt Q06518); test: NOS activity, conversion of L-[3H]arginine to L-[3H]citrulline, iNOS; type: biochemical; settings: 100 nM L-[3H]arginine, 37° C., 10 min
Procedure: Crude enzymes of the respective NOS isoforms were prepared by the following procedures (Nagafuji et al., Neuroreport 6, 1541-1545, 1995).
The method of measuring NOS activity was basically the same as already reported by the present inventors and consisted of determining quantitatively the conversion of a substrate L-[^3H]arginine to a reaction product L-[^3H] citrulline (Nagafuji et al., in Brain Edema IX (Ito et al, eds.) 60, pp. 285-288, 1994; Nagafuji et al., Neuroreport 6, 1541-1545, 1995)
The reaction solution consisted of 100 nM L-[^3H] arginine, a prepared crude NOS enzyme sample (10-30 μg/ml protein), 1.25 mM CaCl2, 1 mM EDTA, 10 μg/ml calmodulin, 1 mM NADPH, 100 μM tetrahydrobiopterine, 10 μM FAD, 10 μM FMN and 50 mM Tris-HCl (pH 7.4), to which one of the compounds of the invention or one of the control compounds was added.
as §1

[1] = crude enzyme from rat cerebral cortex, soluble cytosolic fraction, 100 nM L-[3H]arginine, 37° C., 10 min, read-out: IC50 (nM) nNOS (type 1)

T2 sequence (P29473 2-1205): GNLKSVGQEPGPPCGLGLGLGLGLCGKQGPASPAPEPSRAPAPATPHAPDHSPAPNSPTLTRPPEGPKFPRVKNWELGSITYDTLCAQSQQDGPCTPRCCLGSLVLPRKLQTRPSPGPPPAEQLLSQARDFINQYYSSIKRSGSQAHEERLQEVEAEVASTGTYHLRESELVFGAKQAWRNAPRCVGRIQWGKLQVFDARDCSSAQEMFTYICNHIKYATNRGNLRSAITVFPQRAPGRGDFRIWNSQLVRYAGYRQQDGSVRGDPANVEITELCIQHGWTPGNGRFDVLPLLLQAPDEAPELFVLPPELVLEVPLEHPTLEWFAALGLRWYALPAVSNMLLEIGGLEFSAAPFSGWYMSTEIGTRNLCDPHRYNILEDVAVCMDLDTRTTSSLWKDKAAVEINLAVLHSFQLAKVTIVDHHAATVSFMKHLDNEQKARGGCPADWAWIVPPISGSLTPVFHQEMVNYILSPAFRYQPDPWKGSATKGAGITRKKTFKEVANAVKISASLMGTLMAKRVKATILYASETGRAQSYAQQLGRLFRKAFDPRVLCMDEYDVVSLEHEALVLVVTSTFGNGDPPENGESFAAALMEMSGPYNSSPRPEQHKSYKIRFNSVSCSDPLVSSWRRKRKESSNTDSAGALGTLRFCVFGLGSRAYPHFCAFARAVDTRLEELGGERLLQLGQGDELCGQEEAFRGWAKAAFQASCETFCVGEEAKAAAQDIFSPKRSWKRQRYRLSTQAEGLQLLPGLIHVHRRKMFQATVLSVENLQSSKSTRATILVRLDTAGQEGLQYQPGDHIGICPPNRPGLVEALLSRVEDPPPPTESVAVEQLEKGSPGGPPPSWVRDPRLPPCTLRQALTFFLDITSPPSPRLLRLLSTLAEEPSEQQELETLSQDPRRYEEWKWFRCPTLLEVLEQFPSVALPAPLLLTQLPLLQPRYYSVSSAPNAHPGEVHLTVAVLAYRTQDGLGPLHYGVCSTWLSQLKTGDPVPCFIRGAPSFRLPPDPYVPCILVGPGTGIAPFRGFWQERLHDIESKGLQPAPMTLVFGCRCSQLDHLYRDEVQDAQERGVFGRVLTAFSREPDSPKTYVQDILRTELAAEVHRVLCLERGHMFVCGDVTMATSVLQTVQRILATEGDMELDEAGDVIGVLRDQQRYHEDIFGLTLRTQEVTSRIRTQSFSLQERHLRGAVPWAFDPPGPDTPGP
Sequence of iNOS (type 2) (Q06518 whole entry, canonical isoform): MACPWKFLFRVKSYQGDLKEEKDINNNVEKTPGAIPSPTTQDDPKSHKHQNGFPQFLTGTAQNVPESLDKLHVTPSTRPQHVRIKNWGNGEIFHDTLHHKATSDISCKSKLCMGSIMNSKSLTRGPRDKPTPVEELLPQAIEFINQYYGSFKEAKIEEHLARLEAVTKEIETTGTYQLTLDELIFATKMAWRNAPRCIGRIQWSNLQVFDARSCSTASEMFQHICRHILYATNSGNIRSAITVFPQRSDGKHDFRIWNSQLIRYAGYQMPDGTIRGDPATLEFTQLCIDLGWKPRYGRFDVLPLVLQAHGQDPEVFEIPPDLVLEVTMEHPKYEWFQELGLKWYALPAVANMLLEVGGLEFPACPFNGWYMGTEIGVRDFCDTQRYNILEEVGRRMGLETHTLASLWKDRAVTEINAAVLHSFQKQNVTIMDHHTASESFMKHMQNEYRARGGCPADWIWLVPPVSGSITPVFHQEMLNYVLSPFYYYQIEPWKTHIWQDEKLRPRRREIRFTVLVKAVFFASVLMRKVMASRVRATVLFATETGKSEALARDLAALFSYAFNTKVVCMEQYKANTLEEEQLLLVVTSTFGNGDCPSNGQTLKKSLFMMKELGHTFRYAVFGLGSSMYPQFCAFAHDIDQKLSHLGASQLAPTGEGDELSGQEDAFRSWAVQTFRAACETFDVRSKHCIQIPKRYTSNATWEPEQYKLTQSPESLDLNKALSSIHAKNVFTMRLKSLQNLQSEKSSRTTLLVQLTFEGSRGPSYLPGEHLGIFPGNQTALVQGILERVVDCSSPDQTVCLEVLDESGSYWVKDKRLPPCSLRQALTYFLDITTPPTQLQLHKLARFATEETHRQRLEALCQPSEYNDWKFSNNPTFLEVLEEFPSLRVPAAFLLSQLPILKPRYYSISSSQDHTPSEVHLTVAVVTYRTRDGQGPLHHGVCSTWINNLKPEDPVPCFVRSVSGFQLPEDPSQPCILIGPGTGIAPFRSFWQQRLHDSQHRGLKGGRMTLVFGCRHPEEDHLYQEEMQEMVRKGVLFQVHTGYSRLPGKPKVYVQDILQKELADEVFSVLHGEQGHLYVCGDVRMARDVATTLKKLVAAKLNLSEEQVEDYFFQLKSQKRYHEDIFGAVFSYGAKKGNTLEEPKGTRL

SMILES | IC50 (nNOS (type 1)) [nM] | IC50 (eNOS (type 3)) [nM] | IC50 (iNOS (type 2)) [nM] | selectivity for nNOS inhibition over eNOS compared with L-EIN (nNOS (type 1); comparison drawn from Table 2) | IC50 (nNOS (type 1); [1]) [nM] | Ratio of IC50 eNOS/nNOS (nNOS (type 1)) | Ratio of IC50 iNOS/nNOS (nNOS (type 1)) | Ratio of IC50 eNOS/inos (eNOS (type 3)) | nNOS inhibiting activity compared with L-MIN (nNOS (type 1); comparison drawn from Table 2)
CCSC(=N)NCCC[C@H](N)C(=O)O [L-EIN, S-ethyl-L-thiocitrulline] | 8.4 | 732 | 6760 | – | – | – | – | – | –
CCSC(=N)Nc1ccc(-n2cccn2)c(CN)c1C [Example 7, N-(3-aminomethyl-2-methyl-4-(pyrazol-1-yl)phenyl)-S-ethylisothiourea dihydrochloride] | – | 21100 | – | higher selectivity for nNOS inhibition over eNOS than L-EIN | 22.4 | 943 | – | – | –
CCSC(=N)Nc1ccc(-n2cccn2)c(CN)c1 [Example 2, N-(3-aminomethyl-4-(pyrazol-1-yl)phenyl)-S-ethylisothiourea dihydrochloride] | – | 5130 | 20500 | higher selectivity for nNOS inhibition over eNOS than L-EIN | 6.3 | 816 | 3260 | 0.250 | –
CCSC(=N)Nc1ccc(-n2cccc2)c(CN)c1 [Example 1, N-(3-aminomethyl-4-(pyrrol-1-yl)phenyl)-S-ethylisothiourea dihydrochloride] | – | 1920 | 7930 | higher selectivity for nNOS inhibition over eNOS than L-EIN | 3.7 | 515 | 2120 | 0.243 | more potent nNOS inhibiting activity than L-MIN
N=C(NCCC[C@H](N)C(=O)O)NC1CC1 [L-CPA, N^G-cyclopropyl-L-arginine] | – | 1540 | 7150 | – | – | – | – | – | –
N=C(NCCC[C@H](N)C(=O)O)N[N+](=O)[O-] [L-NA, N^G-nitro-L-arginine] | – | – | 3460 | – | – | – | – | – | –
COC(=O)[C@@H](N)CCCNC(=N)N[N+](=O)[O-] [L-NAME, N^G-nitro-L-arginine methyl ester, reference compound] | – | 670 | 13500 | – | – | – | – | – | –
CSC(=N)NCCC[C@H](N)C(=O)O [L-MIN, S-methyl-L-thiocitrulline, reference compound] | 5.7 | 35.8 | 248 | – | – | 6.28 | 43.3 | 0.145 | –
